From ChEMBL document CHEMBL1201862, “PubChem BioAssay data set” (2004)
Active and inactive are the calls of the source.

Legend:
[1] = target: T1, Short transient receptor potential channel 4 (Mus musculus, UniProt Q9QUQ5); assay: calcium entry via TRPC4 opening agents – cell-based, HEK293 TRPC4/mu-opioid, Fluo-4 calcium, dose response (AID 434937); format: functional
T1 sequence (Q9QUQ5 whole entry): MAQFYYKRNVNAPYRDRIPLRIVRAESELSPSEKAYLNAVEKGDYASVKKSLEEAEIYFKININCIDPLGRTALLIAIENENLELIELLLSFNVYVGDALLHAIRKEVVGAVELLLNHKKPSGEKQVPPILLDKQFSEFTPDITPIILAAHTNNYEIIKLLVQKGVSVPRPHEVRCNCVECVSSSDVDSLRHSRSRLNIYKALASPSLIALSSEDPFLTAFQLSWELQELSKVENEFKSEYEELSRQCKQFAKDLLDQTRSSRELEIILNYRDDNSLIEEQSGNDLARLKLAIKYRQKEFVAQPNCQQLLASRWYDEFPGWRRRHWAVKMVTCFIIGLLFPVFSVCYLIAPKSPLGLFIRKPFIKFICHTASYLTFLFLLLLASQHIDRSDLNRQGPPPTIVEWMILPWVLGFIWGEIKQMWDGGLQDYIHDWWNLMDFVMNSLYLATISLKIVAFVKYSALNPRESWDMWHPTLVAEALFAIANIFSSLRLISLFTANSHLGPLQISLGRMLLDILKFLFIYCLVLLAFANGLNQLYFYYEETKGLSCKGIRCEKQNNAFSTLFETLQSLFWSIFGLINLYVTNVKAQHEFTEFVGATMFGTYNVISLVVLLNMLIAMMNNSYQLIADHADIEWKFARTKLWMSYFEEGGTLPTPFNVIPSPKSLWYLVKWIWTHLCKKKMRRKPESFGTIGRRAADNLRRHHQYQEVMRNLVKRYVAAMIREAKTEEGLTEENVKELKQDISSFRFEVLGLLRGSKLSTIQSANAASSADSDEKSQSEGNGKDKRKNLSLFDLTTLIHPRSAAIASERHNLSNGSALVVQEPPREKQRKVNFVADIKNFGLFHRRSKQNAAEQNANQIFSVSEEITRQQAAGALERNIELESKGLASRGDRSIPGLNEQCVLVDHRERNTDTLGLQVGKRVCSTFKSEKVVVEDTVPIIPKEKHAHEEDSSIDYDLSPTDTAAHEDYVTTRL

Cytochrome P450 2D6 = Cytochrome P450 2D6 (Homo sapiens, UniProt P10635);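 further: CYP2D6 member of a cytochrome P450 panel assay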
Cytochrome P450 3A4 = Cytochrome P450 3A4 (Homo sapiens, UniProt P08684);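 further: CYP3A4 tested as one member of a cytochrome P450 panel screen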
Cytochrome P450 2C9 = Cytochrome P450 2C9 (Homo sapiens, UniProt P11712)
Genome polyprotein = Genome polyprotein (dengue virus type 2, UniProt P29990); assay: flavivirus cap methylation enzyme inhibition – biochemical, confirmation dose response, primary screen (AID 588689); format: functional
Protein RecA = target: T2, Protein RecA (Mycobacterium tuberculosis, UniProt P9WHJ3); assay: Fluorescence Cell-Free Homogeneous Dose Retest to Identify Inhibitors of RecA-Intein Splicing Activity. [Related pubchem assays (depositor defined):AID2097, AID2223, AID489010, AID492950]; format: functional
T2 sequence (P9WHJ3 whole entry): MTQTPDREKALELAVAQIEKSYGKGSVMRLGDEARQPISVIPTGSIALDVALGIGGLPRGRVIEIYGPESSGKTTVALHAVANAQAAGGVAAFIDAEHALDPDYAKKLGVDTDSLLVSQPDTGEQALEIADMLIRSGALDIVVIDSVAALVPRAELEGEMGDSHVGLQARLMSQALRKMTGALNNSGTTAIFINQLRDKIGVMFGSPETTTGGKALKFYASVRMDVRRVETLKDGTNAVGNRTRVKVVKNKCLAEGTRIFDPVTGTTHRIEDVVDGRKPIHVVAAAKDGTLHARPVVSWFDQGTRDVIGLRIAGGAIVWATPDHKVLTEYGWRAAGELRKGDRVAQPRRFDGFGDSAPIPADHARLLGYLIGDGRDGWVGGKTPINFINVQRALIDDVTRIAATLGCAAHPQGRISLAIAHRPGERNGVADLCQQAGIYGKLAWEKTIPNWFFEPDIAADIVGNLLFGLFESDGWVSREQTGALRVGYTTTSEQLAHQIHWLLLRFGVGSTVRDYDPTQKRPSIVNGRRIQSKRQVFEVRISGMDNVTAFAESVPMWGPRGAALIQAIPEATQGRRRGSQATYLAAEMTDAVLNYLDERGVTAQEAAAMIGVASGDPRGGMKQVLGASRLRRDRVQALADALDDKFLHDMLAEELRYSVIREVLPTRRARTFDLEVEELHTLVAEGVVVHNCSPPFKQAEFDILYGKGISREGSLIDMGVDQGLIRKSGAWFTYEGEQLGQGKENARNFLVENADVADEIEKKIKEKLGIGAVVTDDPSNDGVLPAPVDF

[2] = target: T3, Replicative DNA helicase DnaB (Mycobacterium tuberculosis, UniProt P9WMR3); assay: DnaB intein splicing inhibitors, dose response, biochemical, cell-free fluorescence (AID 449749); format: functional
T3 sequence (P9WMR3 whole entry): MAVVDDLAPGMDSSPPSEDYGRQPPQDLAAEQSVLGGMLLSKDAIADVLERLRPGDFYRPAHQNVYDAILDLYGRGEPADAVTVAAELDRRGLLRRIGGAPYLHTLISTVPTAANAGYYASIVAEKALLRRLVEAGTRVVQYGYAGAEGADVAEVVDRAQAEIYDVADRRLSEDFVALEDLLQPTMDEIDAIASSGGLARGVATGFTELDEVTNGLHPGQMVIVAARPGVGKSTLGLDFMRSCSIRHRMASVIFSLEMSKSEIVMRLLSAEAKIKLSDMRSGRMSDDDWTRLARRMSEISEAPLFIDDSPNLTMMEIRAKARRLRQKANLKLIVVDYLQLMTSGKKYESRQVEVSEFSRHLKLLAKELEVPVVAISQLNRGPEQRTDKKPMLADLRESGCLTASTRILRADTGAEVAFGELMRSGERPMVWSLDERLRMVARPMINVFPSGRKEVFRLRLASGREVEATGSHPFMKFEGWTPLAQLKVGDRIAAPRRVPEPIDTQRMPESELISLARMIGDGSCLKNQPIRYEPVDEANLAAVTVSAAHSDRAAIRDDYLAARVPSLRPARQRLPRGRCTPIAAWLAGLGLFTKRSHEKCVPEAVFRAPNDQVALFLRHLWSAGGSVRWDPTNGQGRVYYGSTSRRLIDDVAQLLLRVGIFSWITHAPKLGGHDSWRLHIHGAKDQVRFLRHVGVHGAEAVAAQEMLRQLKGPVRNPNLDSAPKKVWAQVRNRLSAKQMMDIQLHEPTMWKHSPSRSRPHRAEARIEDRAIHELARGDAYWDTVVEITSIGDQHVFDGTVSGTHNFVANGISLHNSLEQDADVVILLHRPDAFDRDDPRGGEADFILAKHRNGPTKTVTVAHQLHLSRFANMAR

[3] = alpha-synuclein stem-loop luciferase translation blockers – H4 neuroglioma cells, luminescence, confirmation (AID 1988); format: functional, cell-based
[4] = luciferase reporter signal suppression in cells – H4 neuroglioma cells, luminescence, dose response (AID 1990); format: functional, cell-based
[5] = Luminescence Cell-Based Dose Response HTS to Identify Inhibitors of 5'UTR Stem-Loop Driven Prion Protein mRNA Translation in H4 Neuroglioblastoma Cells. [Related pubchem assays: 1827 (Project Summary), 1813 (Primary HTS)]; format: functional
[6] = target: Glucose-6-phosphate 1-dehydrogenase (Homo sapiens, UniProt P11413); assay: inhibition of Homo sapiens G6PD, dose series – biochemical, fluorescence, selectivity assay for P. falciparum G6PD inhibitor project, dose response (AID 504792); format: functional
[7] = target: FAD-linked sulfhydryl oxidase ALR (Homo sapiens, UniProt P55789); assay: ALR-catalysed DTT oxidation blockers – biochemical, H2O2 detection, luminescence, cherry-pick, dose response (AID 493248)
H9c2 = assay: cells; format: functional, cell-based; settings: Rattus norvegicus, H9c2, Myocardium;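 further: confirmatory concentration-response retest of ultra-high-throughput screening hits for modulation of myocardial damage; cell death induced by hydrogen peroxide oxidative stress; compound pretreatment for 60 min then peroxide exposure for 2 h; potency is for protecting the cells against peroxide damage rather than for killing them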
Vero = assay: cells; format: functional; settings: Chlorocebus sabaeus
[8] = fluconazole-exposed Candida albicans growth modulators – fluorescence, retest, confirmation (AID 2467); format: functional, cell-based
Streptococcus = assay: GAS UMAA2166 growth inhibition – luminescence, BacTiterGlo, counter-screen for streptokinase expression inhibitor project, dose response (AID 1915); format: functional, organism-based;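 further: potency for reduction of bacterial viability or growth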
[9] = Trypanosoma cruzi growth suppression in host cells – NIH3T3 host cells, beta-gal luminescence, confirmation (AID 2044); format: functional, cell-based;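 further: intracellular parasites grown in NIH/3T3 mouse fibroblasts as host cells; luminescent beta-galactosidase reporter signal from transgenic T. cruzi replicating inside host cells; inhibitors lower the luminescence signal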
[10] = tested on: Streptococcus sp. 'group A'; assay: Streptococcus pyogenes SK(-)GAS viability under kanamycin – luminescence, BacTiterGlo, confirmation, counter-screen for streptokinase expression inhibitor project, dose response (AID 1900); format: functional, organism-based
[11] = NIH3T3 cell viability loss – ATP luminescence, mouse fibroblasts, counter-screen, dose response (AID 2010); format: functional, cell-based;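 further: cells exposed to compound for about 90 hours before reading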
[12] = NIH-3T3 fibroblast cytotoxicity, dose response, cytotoxicity control, cell-based, fluorescence, Alamar Blue, secondary assay (AID 2327); format: functional;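 further: NIH-3T3 mouse fibroblasts cultured with fluconazole at 8 µg/mL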

CCc1ccc(C(=O)c2cnc3ccc(OC)cc3c2N2CCN(CC)CC2)cc1
EC50 [1]: 5.96 µM (active)

C=CCN1CCc2cccc3c2[C@@H]1Cc1ccc(O)c(O)c1-3
AC50 (Cytochrome P450 2D6): 31.6 µM (inconclusive) | AC50 (Cytochrome P450 3A4): 31.6 µM (inconclusive) | AC50 (Cytochrome P450 2C9): 31.6 µM (inconclusive)

CC1=NN(c2ccccc2)C(=O)/C1=C/c1cccc(C)c1
IC50 (Genome polyprotein): 50.5 µM (active) | EC50 (Protein RecA): 1.58 µM (active) | AC50 [2]: 3.59 µM (active)

COc1cccc(C(=O)N(C)CC2CCN(CCc3cccc(C(F)(F)F)c3)CC2)c1
EC50 [1]: 0.596 µM (active)

O=[N+]([O-])c1ccc(N/N=C/c2cn(Cc3ccc(F)cc3)c3ccccc23)nc1
EC50 [3]: 12 µM (active) | EC50 [4]: 25.8 µM (active) | EC50 [5]: 15.2 µM (active)

COc1cccc(/C=N/NC(=O)CSc2cccc3cccnc23)c1
IC50 [6]: > 80 µM (inactive)

O=c1oc2cc(Br)ccc2n1CSC1=NCCS1
AC50 [7]: 0.033 µM (active)

CC(NC(=O)CCSc1nc(-c2ccco2)cc(C(F)(F)F)n1)c1ccccc1 (configuration not stated)
AC50 (Cytochrome P450 2D6): 15.8 µM (inconclusive) | AC50 (Cytochrome P450 2C9): 15.8 µM (inconclusive)

Cc1ncc(CO)c2cc(C(=O)Nc3ccccc3Cl)/c(=N/c3cccc(C(N)=O)c3)oc12
IC50 (H9c2): 12.4 µM (active)

Cc1cccc(C(=O)N2CCc3cc(-c4csc(NC(=O)CN5CCCC5)n4)ccc32)c1
CC50 (Vero): > 25 µM (active)

Cc1ccc2nc(O)c(CN(CCCN3CCOCC3)C(=O)Nc3ccc(Cl)cc3)cc2c1
IC50 (H9c2): > 79 µM (inactive)

CC(C)c1ccc(NC2CCCN(C(=O)c3cnc4ccccn4c3=O)C2)cc1 (configuration not stated)
AC50 [7]: 8.31 µM (active)

CC1CC(C)CN(CCCNC(=O)c2ccc3c(c2)N(Cc2ccccc2)C(=O)c2ccccc2[S+]3[O-])C1 (configuration not stated)
EC50 [1]: 0.841 µM (active)

COc1ccc(-c2csc(NC(=O)c3cccc(N4C(=O)CCC4=O)c3)n2)cc1OC
IC50 (H9c2): > 79 µM (inactive)

CCN(CC)CCCOc1ccc(Cl)c(Cl)c1
EC50 [1]: 2.37 µM (active)

Cc1cc(C(=O)NNC(=O)CCN2CCN(c3ccccc3)CC2)c2ccccc2n1
AC50 [7]: 5.94 µM (active)

COc1ccc(-n2cc(CNCCCn3ccnc3)c(-c3cccc(F)c3)n2)cc1
CC50 (Vero): > 25 µM (active)

COc1ccccc1C(=O)NNC(=S)NC(=O)c1cc(OC)c(OC)c(OC)c1
EC50 [8]: 2.49 µM (active) | CC50 (Vero): 13.6 µM (active) | EC50 (Streptococcus): 2.5 µM (active) | EC50 [9]: 0.158 µM (active) | EC50 [10]: 1.25 µM (active) | EC50 [11]: 6.32 µM (active) | EC50 [12]: > 150 µM (inactive)

Cc1cccc(C)c1OCCn1nc(C(=O)O)c2ccccc2c1=O
IC50 (H9c2): > 79 µM (inactive)

CCOc1ccc(/C=C2/Sc3ccc(C(=O)N4CCN(C(=O)c5ccco5)CC4)cc3N(C)C2=O)cc1OC
EC50 [3]: 97.7 µM (active) | EC50 [4]: 105 µM (active) | EC50 (Streptococcus): 5.98 µM (active) | EC50 [10]: 2.63 µM (active) | EC50 [5]: > 120 µM (not active)

Oc1ccc(-c2onc3ccc(Cl)cc23)cc1
AC50 [7]: 6.97 µM (active)

COc1cc(/C=N/N2CCCCC2)cc([N+](=O)[O-])c1O
AC50 [7]: 2.71 µM (active)

O=C(N/N=C\c1ccccn1)c1cccc(C(=O)N/N=C\c2ccccn2)n1
IC50 (H9c2): > 79 µM (inactive)

c1coc(-c2nnc3sc(-c4cccs4)nn23)c1
IC50 (H9c2): 15.6 µM (active)

CN1CCc2nc3ccccc3c(C(=O)OCC(=O)N(CCC#N)c3ccccc3)c2C1
IC50 (H9c2): > 79 µM (inactive)

CCOC(=O)C1=C(C)N=C(C)C(=C(O)OCC)C1C(=O)OCC(=O)NC(C)C (configuration not stated)
IC50 (H9c2): > 79 µM (inactive)

CCOC(=O)c1ccc(/[N+]([O-])=C/c2ccccc2)cc1
IC50 [6]: > 80 µM (inactive)

O=C(NCC(=O)N1CCN(c2ccccc2)CC1)c1cccs1
AC50 [7]: 21.4 µM (active)

Cc1c(/C=C/C(=O)c2ccc(Cl)s2)cnn1C
IC50 [6]: > 80 µM (inactive)

CCOc1ccc(N2C(=O)NC(=O)/C(=C\c3ccccc3[N+](=O)[O-])C2=O)cc1
IC50 (Genome polyprotein): 30.5 µM (active)

CC(=O)n1cc([C@H]2C=C(C(=O)NCc3ccccc3)O[C@@H](OCc3ccc(CO)cc3)C2)c2ccccc21
EC50 [1]: 8.41 µM (active)

Sc1nnc(/C=C/c2ccccc2)o1
AC50 [7]: 29.9 µM (active)

CCn1c(S)nnc1-c1ccccc1O
AC50 [7]: 9.17 µM (active)

CC(C)c1nnc(NC(=O)c2cccc(-n3cnnn3)c2)s1
IC50 [6]: 50 µM (inactive)

CCN(CC(=O)Nc1cc(Cl)ccc1C)C(=O)C1CCN(c2ncnc3sc(C)c(C)c23)CC1
IC50 (H9c2): 12.7 µM (active)
